In series [1] the target is human OAT3 (organic anion transporter3) (Homo sapiens (Human), UniProt Q8TCC7). Put plainly: hOAT3 mediated uptake in MDCK-II cells. The following applies: for Cellular Accumulation (control): control vector cells of hOAT3 test; for Cellular Accumulation (transporter): hOAT3 expressing MDCK-II cells. The class given is in vitro ADME. How it is done:
Experimental: The uptake test system was comprised of a polarized monolayer of MCDK-II cells grown on permeable supports. The MDCK-II cells were treated to express the transporter of interest or treated with a control vector.
The uptake of 2 μM [^3H]-p-aminohippurate (PAH) and 0.75 μM [^3H]-estrone-3-sulfate (E-3-S) in the absence and presence of the reference inhibitor was determined by radiometric detection. The uptake of CMX157 and tenofovir was in the absence and presence of the reference inhibitor or 20% human serum was determined by LC/MS/MS. Experiments were performed under the same conditions for the cells expressing the transporter or those treated with the control vector.
Net Transporter Mediated Uptake=(Cellular accumulation in the presence of the transporter)−(Cellular accumulation in the absence of the transporter) Results: The net hOAT1 mediated uptake of tenofovir in the presence and absence of 100 μM probenecid or 20% human serum is shown in FIG. 8. The transport of tenofovir is inhibited by probenecid and relatively unchanged by the presence of 20% human serum. OAT3 also appeared to mediate the transport of tenofovir. The effect of probenecid, however, was minimal. The presence of 20% human serum in the OAT3 experiment reduced the OAT3 mediated transport of tenofovir.

Another series relates to CEM-SS cells. Briefly: Toxicity XTT in CEM-SS cells. (Formazan colour is commonly taken as a measure of viable cells.)
Another series relates to HIV-1IIIB. Put plainly: Anti-HIV-1 cytoprotection assay (CEM-SS, XTT).
The conditions of series [2]: cited from earlier work.
Series [3] relates to human PBMCs. Briefly: Intracellular TFV-diphosphate in human PBMCs in vitro. The following applies: human PBMCs (IL-2/PHA) after incubation with 1 μM CMX157 for 48 hours.
Series [4] has as its target human OAT1 (organic anion transporter1) (Homo sapiens (Human), UniProt Q4U2R8). Briefly: hOAT1 mediated uptake in MDCK-II cells. The following applies: for Cellular Accumulation (control): control vector cells of hOAT1 test; for Cellular Accumulation (transporter): hOAT1 expressing MDCK-II cells.
A short description of series [5]: Phase I single dose study, plasma pharmacokinetics. The class given is in vivo, human. The following applies: plasma, mean. How it is done: The study was a randomized, blinded, dose escalation trial to evaluate safety, tolerability, and pharmacokinetics. Healthy volunteers in each cohort (6 active/2 placebo) received a single dose of 25, 50, 100, 200 or 400 mg. An additional cohort received a standard dose of Viread for comparison of TFV-PP levels. For tenofovir anabolite analysis, PBMCs were lysed with 70% ice cold methanol and centrifuged; supernatants were analyzed using LC/MS/MS. The clinical samples were split into two aliquots. One aliquot was used for analysis of CMX157; following addition of an internal standard, these samples were evaporated to dryness prior to reconstitution and analysis. The second aliquot was for analysis of TFV, TFV-monophosphate and TFV-diphosphate; following addition of internal standards, samples were vortexed and centrifuged prior to analysis.

Series [6] deals with human PBMCs. Particulars: activated human PBMCs, 1 μM TFV; cited from earlier work.
[7] abbreviates: hOAT3, substrate alone (E3S 0.75 μM).
Setting [8] is: Human immunodeficiency virus 1, IIIB, CEM-SS, 144 h, read-out: CEMSS/IIIB EC50.

Molecules are shown by their SMILES. pEC50: −log10 of the molar value. Read-outs that look alike come from different tables or passages of the source.

`C[C@]12CC[C@@H]3c4ccc(OS(=O)(=O)O)cc4CC[C@H]3[C@@H]1CCC2=O` [E3S, estrone-3-sulfate]: in series [1] (substrate alone (E3S 0.75 μM)), the “Cellular Accumulation (control)” value came out at 39.5 ± 11.6 pmol/min/cm^2 and the “Cellular Accumulation (transporter)” value was 30.7 pmol/min/cm^2. Further, the “Net Transporter Mediated Cellular Accumulation” value in series [1] (setting [7]) is on record as −8.72 pmol/min/cm^2.

On to `C[C@H](Cn1cnc2c(N)ncnc21)OCP(=O)(O)OCCCOCCCC(=O)O` [CMX157-220], for which the “CEMSS TC50” value in the series on CEM-SS cells is above 10000 nM. Besides, in the series on HIV-1IIIB (setting [8]), the pEC50 was below 5.00.

Consider `CC(Cn1cnc2c(N)ncnc21)OCP(=O)(O)OP(=O)(O)OP(=O)(O)O` (stereo in doubt) [TFV-PP, tenofovir-diphosphate], for which the “median human TFV-PP” value in series [2] (Kiser et al. JAIDS 2008:47) is listed as 0.076 pmol/10^6. Further, the “in vitro intracellular half-life of TFV-PP (t1/2)” value in the series with human PBMCs [3] is 79.2 h.

Turning to `CCCCCCCCCCCCCCCCOCCCOP(=O)([O-])CO[C@H](C)Cn1cnc2c(N)ncnc21.[K+]` [CMX157 K^+ salt], the “CEMSS TC50” value in the series with CEM-SS cells came to 5200 nM. Also, the pEC50 with HIV-1IIIB (CEM-SS cells, HIV-1 IIIB) is above 7.52; in the series with HIV-1IIIB (read-out: CEMSS/IIIB EC50, CEM-SS cells, HIV-1 IIIB, 6 days, XTT) it was above 7.52.

With `C[C@H](Cn1cnc2c(N)ncnc21)OCP(=O)(O)OCCCO` [CMX157-210], the “CEMSS TC50” value in the series on CEM-SS cells was above 10000 nM. In addition, the pEC50 with HIV-1IIIB (setting [8]) was below 5.00.

As usually defined, the Cmax is the peak of the concentration-time curve. Take `C[C@H](Cn1cnc2c(N)ncnc21)OCP(=O)(O)O` [Tenofovir, (R)-9-(2-phosphonylmethoxypropyl)adenine, reference compound]: in series [2] (VIREAD package insert 2007), the Cmax was around 1000 nM. Besides, the “Cellular Accumulation (control)” value is on record as 1.94 ± 0.345 pmol/min/cm^2 in series [1] (+ 100 μM probenecid); 2.28 ± 1.24 pmol/min/cm^2 in series [1] (+ 20% human serum); 2.65 ± 1.96 pmol/min/cm^2 in series [1] (substrate alone (E3S 0.75 μM)); 2.22 ± 0.995 pmol/min/cm^2 in series [4] (+ 100 μM probenecid); 1.77 ± 1.13 pmol/min/cm^2 in series [4] (+ 20% human serum); 2.45 ± 0.197 pmol/min/cm^2 in series [4] (substrate alone (PAH 2 μM)). Further, the “Net Transporter Mediated Cellular Accumulation” value in series [1] (hOAT3, + 100 μM probenecid) is given as 1.35 ± 0.364 pmol/min/cm^2; in series [1] (hOAT3, + 20% human serum) it was −0.292 ± 0.0591 pmol/min/cm^2; in series [1] (setting [7]) it was 1.03 ± 0.591 pmol/min/cm^2; in series [4] (hOAT1, + 100 μM probenecid), 4.49 ± 1.46 pmol/min/cm^2; in series [4] (hOAT1, + 20% human serum), 20.0 ± 3.45 pmol/min/cm^2; in series [4] (hOAT1, substrate alone (PAH 2 μM)), 19.5 ± 4.04 pmol/min/cm^2. Also, the “Cellular Accumulation (transporter)” value stood at 3.29 ± 0.364 pmol/min/cm^2 in series [1] (+ 100 μM probenecid); 1.99 ± 0.0591 pmol/min/cm^2 in series [1] (+ 20% human serum); 3.68 ± 0.591 pmol/min/cm^2 in series [1] (substrate alone (E3S 0.75 μM)); 6.71 ± 1.46 pmol/min/cm^2 in series [4] (+ 100 μM probenecid); 21.8 ± 3.45 pmol/min/cm^2 in series [4] (+ 20% human serum); 21.9 ± 4.04 pmol/min/cm^2 in series [4] (substrate alone (PAH 2 μM)). The “substrate for human OAT1” value in series [4] (MDCK) is on record as “appeared to be a substrate”. The “TFV AUCINF” value turned out to be 283 ng·h/mL in series [5] (single oral dose CMX157 200 mg) and 371 ng·h/mL in series [5] (single oral dose CMX157 400 mg). Further, the “TFV Cmax” value in series [5] (single oral dose CMX157 200 mg) is given as 16 ng/mL; in series [5] (single oral dose CMX157 400 mg), 27 ng/mL. Also, the TFV-diphosphate produced in the series with human PBMCs [6] was 50 fmoles per million cells.

Turning to `Cc1cn([C@H]2C[C@H](N=[N+]=[N-])[C@@H](CO)O2)c(=O)[nH]c1=O` [AZT, 3′-azido-2′,3′-dideoxythymidine, reference compound], the “CEMSS TC50” value with CEM-SS cells is above 100 nM. Moreover, the pEC50 was 8.52 in the series on HIV-1IIIB (Human immunodeficiency virus 1, IIIB, CEM-SS) and 8.52 in the series on HIV-1IIIB (setting [8]). Moreover, in the series with HIV-1IIIB (TC50/EC50, CEM-SS, HIV-1 IIIB), the “Therapeutic Index” value was above 33.3.

`C[C@H](Cn1cnc2c(N)ncnc21)OCP(=O)(O)OCCCOCC(=O)O` [CMX157-211]: the “CEMSS TC50” value in the series on CEM-SS cells is above 10000 nM. The pEC50 in the series with HIV-1IIIB (setting [8]) is below 5.00.

The record behind these values is patent publication US9694024B2 (priority 2010, dated 2017).
